Source: publication PMC9105941, “A New Xanthone Glycoside from Mangifera indica L.: Physicochemical Properties and In Vitro Anti-Skin Aging Activities” (Molecules, 2022)
Peptide text beside a SMILES is read from it. * marks the point of attachment. MeOSuc = COC(=O)CCC(=O)*; CH2Cl = ClC*

Experiments:
Assay type in all cases: biochemical
[1] = target: elastase (Sus scrofa, UniProt P00772); assay: EnzChek Elastase Assay Kit, anti-elastase activity; conditions: fluorometric kit, 37 °C, 30 min kinetic
Experimental: Anti-elastase activity of the compound was investigated using the EnzChek® Elastase Assay Kit (E-12056) according to the previously reported method. The tested compound and reference control were prepared in concentrations of 0.1, 1, 10, and 100 µg/mL for the analysis. The compound was prepared in 96-well plates with clear bottoms for the fluorometric assay. Briefly, elastase enzyme solutions, elastase substrate, and inhibitor control were prepared as recommended. Diluted elastase solution was then added to the wells. Tested compound, inhibitor control, and enzyme control were added to subsequent wells. The samples were mixed on a shaker and then incubated for 5 min at 37 °C. Assay buffer was mixed with the substrate to prepare the fluorometric reaction mix, which was then added and mixed thoroughly with each sample. The fluorescence was measured immediately at 400 nm excitation wavelength and 505 nm emission wavelength using a microplate reader (FilterMax F5, Thermo Fisher, Waltham, MA, USA). The measurement was made in kinetic mode at 37 °C for 30 min protected from light. All tested samples were prepared and assayed in duplicate and the elastase inhibitory effect of the tested compound was calculated applying the following equation: %Relative inhibition=ΔRFU(test inhibitor)/ΔRFU×100 where: • ΔRFU = a change in relative fluorescence units • EC = enzyme control

[2] = target: tyrosinase; assay: Tyrosinase Inhibitor Screening Colorimetric Assay Kit; conditions: 25 °C, 510 nm
Experimental: The inhibitory activities of oils were tested against collagenase using the Abcam® Tyrosinase Inhibitor Screening Colorimetric Assay Kit (catalog # ab204715). The assay was carried out according to the provided manual. […] The tested compound was prepared in concentrations ranging from 0.1 to 100 µg/mL for the analysis. About 2 μL of provided tyrosinase was mixed with 48 μL of tyrosinase assay buffer. The samples of essential oils or standard (20 μL) were mixed with the enzyme mixture (50 μL) and incubated at 25 °C for 10 min. Then, 30 μL of tyrosinase substrate solution was added to the wells of essential oils and standard. Afterward, the plate was measured spectrophotometrically at a wavelength of 510 nm for 30–60 min at 25 °C.

[3] = target: collagenase; assay: fluorometric collagenase inhibitor screening kit; conditions: 37 °C, 60 min kinetic
Experimental: The inhibitory ability of the isolated compound against collagenase activity was assessed using a fluorometric collagenase inhibitor screening kit (BioVision, catalog no. # K833-100) according to the previously described method. The reference control was (1,10)-phenanthroline. The tested compound and reference control were prepared in concentrations of 1, 10, 100, and 1000 ug/mL for the analysis. The tested compound was prepared in a 96-well plate with a flat bottom. First, the collagenase substrate was dissolved in collagenase assay buffer (CAB). The sample for analysis was prepared by mixing the compound with both collagenase and CAB. Preparing inhibitor control samples was performed by mixing the inhibitor ((1,10)-phenanthroline (80 mM)) with the diluted collagenase enzyme and CAB buffer. Enzyme control was prepared by mixing the diluted collagenase with CAB. The CAB buffer was used as the background control. All samples were incubated at room temperature for 15 min. […] The fluorescence was measured immediately at 490 nm excitation wavelength and 520 nm emission wavelength using a microplate reader (FilterMax F5, Thermo Fisher). […] Samples were prepared in duplicate and the collagenase inhibitory effect of the tested compound was calculated applying the following equation: % Relative inhibition=Enzyme control−sample/Enzyme control×100

Chain of elastase (P00772 27-266): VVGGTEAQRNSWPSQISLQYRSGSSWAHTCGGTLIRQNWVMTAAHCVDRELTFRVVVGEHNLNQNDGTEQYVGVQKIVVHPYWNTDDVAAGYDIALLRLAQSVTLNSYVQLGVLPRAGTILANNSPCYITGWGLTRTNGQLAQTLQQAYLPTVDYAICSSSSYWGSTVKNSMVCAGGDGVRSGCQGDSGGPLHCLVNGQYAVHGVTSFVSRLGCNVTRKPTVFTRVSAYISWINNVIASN

COC(=O)CCC(=O)N[C@@H](C)C(=O)N[C@@H](C)C(=O)N1CCC[C@H]1C(=O)N[C@H](C(=O)CCl)C(C)C [N-methoxysuccinyl-Ala-Ala-Pro-Val-chloromethyl ketone] (MeOSuc-AAPV-CH2Cl)
anti-elastase IC50 [1]: 0.63 µg/mL

O=c1c2ccc(O)c(O)c2oc2c(C3OC(CO)C(O)C(O)C3O)c(O)cc(O)c12 [isolated compound, 1,3,5,6-tetrahydroxyxanthone-C-4-β-D-glucopyranoside]
anti-tyrosinase IC50 [2]: 0.48 µg/mL

c1cnc2c(c1)ccc1cccnc12 [phenanthroline, (1,10)-phenanthroline]
anti-collagenase IC50 [3]: 182.80 µg/mL
